Measured values as given in the supplement of paper PMC10307832.

Experiments:
Experiment in all cases: relative viability (nuclei count vs DMSO), 5 days (fraction); higher = more cells survive
NCI-H2347 = test system: NCI-H2347
Summary of the method: (§1)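 Lung cancer cell lines were seeded in 1536-well plates and dosed by pin tool the next day, with either a single drug or a fixed anchor-drug dose combined with five library-drug doses (not always all listed) spaced in √10 steps. Five days later, one step fixed the cells and stained their nuclei (final 0.05% Triton X-100, 1% formaldehyde, 1 ug/ml Hoechst), and nuclei were counted on 4× images. Relative viability is the nuclei count in treated wells divided by the count in vehicle wells, and each value is the median of duplicate plates.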

NCI-H2009 = test system: NCI-H2009
Summary of the method: as §1

NCI-H661 = test system: NCI-H661
Summary of the method: as §1

EMC-BAC-2 = test system: EMC-BAC-2
Summary of the method: as §1

NCI-H1734 = test system: NCI-H1734
Summary of the method: as §1

HOP-62 = test system: HOP-62
Summary of the method: as §1

NCI-H727 = test system: NCI-H727
Summary of the method: as §1

NCI-H2085 = test system: NCI-H2085
Summary of the method: as §1

NCI-H647 = test system: NCI-H647
Summary of the method: as §1

LCLC-97TM1 = test system: LCLC-97TM1
Summary of the method: as §1

H3255 = test system: H3255
Summary of the method: as §1

NCI-H1993 = conditions: first compound 0.005 µM
Summary of the method: as §1

Question: How did the relative viability (NCI-H2347; first compound 0.01581 µM) turn out when COc1cc2nccc(Oc3ccc(NC(=O)Nc4cc(C)on4)c(Cl)c3)c2cc1OC [Tivozanib] + CCNC(=O)c1noc(-c2cc(C(C)C)c(O)cc2O)c1-c1ccc(CN2CCOCC2)cc1 [Luminespib] (partner 0.01 µM) was run?
Answer: 0.488

Question: What about the relative viability (NCI-H2347; first compound 0.05 µM) of the same compound?
Answer: 0.886

Question: What about the relative viability (NCI-H2347; first compound 0.5 µM) of the same compound?
Answer: 0.249

Question: And the relative viability (NCI-H2009; first compound 0.005 µM)?
Answer: 1.04

Question: And the relative viability (NCI-H2009; first compound 0.01581 µM)?
Answer: 1.01

Question: What about the relative viability (NCI-H2009; first compound 0.05 µM) of the same compound?
Answer: 0.973

Question: And the relative viability (NCI-H2009; first compound 0.1581 µM)?
Answer: 1.04

Question: And the relative viability (NCI-H2009; first compound 0.5 µM)?
Answer: 0.984

Question: What about the relative viability (NCI-H661; first compound 0.005 µM) of the same compound?
Answer: 0.958

Question: And the relative viability (NCI-H661; first compound 0.01581 µM)?
Answer: 0.956

Question: What about the relative viability (NCI-H661; first compound 0.05 µM) of the same compound?
Answer: 0.982

Question: And the relative viability (NCI-H661; first compound 0.1581 µM)?
Answer: 0.998

Question: And the relative viability (NCI-H661; first compound 0.5 µM)?
Answer: 0.953

Question: What about the relative viability (EMC-BAC-2; first compound 0.005 µM) of the same compound?
Answer: 1.13

Question: What about the relative viability (EMC-BAC-2; first compound 0.01581 µM) of the same compound?
Answer: 1.18

Question: And the relative viability (EMC-BAC-2; first compound 0.05 µM)?
Answer: 1.26

Question: And the relative viability (EMC-BAC-2; first compound 0.1581 µM)?
Answer: 1.13

Question: And the relative viability (EMC-BAC-2; first compound 0.5 µM)?
Answer: 1.16

Question: And the relative viability (NCI-H1734; first compound 0.005 µM)?
Answer: 0.2

Question: What about the relative viability (NCI-H1734; first compound 0.01581 µM) of the same compound?
Answer: 0.231

Question: What about the relative viability (NCI-H1734; first compound 0.05 µM) of the same compound?
Answer: 0.325

Question: What about the relative viability (NCI-H1734; first compound 0.1581 µM) of the same compound?
Answer: 0.178

Question: What about the relative viability (NCI-H1734; first compound 0.5 µM) of the same compound?
Answer: 0.18

Question: And the relative viability (HOP-62; first compound 0.005 µM)?
Answer: 0.857

Question: And the relative viability (HOP-62; first compound 0.01581 µM)?
Answer: 0.961

Question: What about the relative viability (HOP-62; first compound 0.05 µM) of the same compound?
Answer: 0.894

Question: And the relative viability (HOP-62; first compound 0.1581 µM)?
Answer: 0.932

Question: What about the relative viability (HOP-62; first compound 0.5 µM) of the same compound?
Answer: 0.918

Question: And the relative viability (NCI-H727; first compound 0.005 µM)?
Answer: 0.349

Question: What about the relative viability (NCI-H727; first compound 0.01581 µM) of the same compound?
Answer: 0.59

Question: And the relative viability (NCI-H727; first compound 0.05 µM)?
Answer: 0.468

Question: What about the relative viability (NCI-H727; first compound 0.1581 µM) of the same compound?
Answer: 0.528

Question: And the relative viability (NCI-H727; first compound 0.5 µM)?
Answer: 0.609

Question: What about the relative viability (NCI-H2085; first compound 0.005 µM) of the same compound?
Answer: 0.431

Question: What about the relative viability (NCI-H2085; first compound 0.01581 µM) of the same compound?
Answer: 0.4

Question: What about the relative viability (NCI-H2085; first compound 0.05 µM) of the same compound?
Answer: 0.469

Question: And the relative viability (NCI-H2085; first compound 0.1581 µM)?
Answer: 0.431

Question: What about the relative viability (NCI-H2085; first compound 0.5 µM) of the same compound?
Answer: 0.522

Question: And the relative viability (NCI-H647; first compound 0.005 µM)?
Answer: 0.156

Question: And the relative viability (NCI-H647; first compound 0.01581 µM)?
Answer: 0.527

Question: And the relative viability (NCI-H647; first compound 0.05 µM)?
Answer: 0.401

Question: What about the relative viability (NCI-H647; first compound 0.1581 µM) of the same compound?
Answer: 0.257

Question: What about the relative viability (NCI-H647; first compound 0.5 µM) of the same compound?
Answer: 0.148

Question: What about the relative viability (LCLC-97TM1; first compound 0.005 µM) of the same compound?
Answer: 0.845

Question: What about the relative viability (LCLC-97TM1; first compound 0.01581 µM) of the same compound?
Answer: 0.849

Question: What about the relative viability (LCLC-97TM1; first compound 0.05 µM) of the same compound?
Answer: 0.716

Question: What about the relative viability (LCLC-97TM1; first compound 0.1581 µM) of the same compound?
Answer: 0.898

Question: What about the relative viability (LCLC-97TM1; first compound 0.5 µM) of the same compound?
Answer: 0.738

Question: And the relative viability (H3255; first compound 0.005 µM)?
Answer: 0.69

Question: And the relative viability (H3255; first compound 0.01581 µM)?
Answer: 0.851

Question: And the relative viability (H3255; first compound 0.05 µM)?
Answer: 0.821

Question: And the relative viability (H3255; first compound 0.1581 µM)?
Answer: 0.704

Question: And the relative viability (H3255; first compound 0.5 µM)?
Answer: 0.681

Question: What about the relative viability (NCI-H1993) of the same compound?
Answer: 0.783
